# Legend:
# Type in all cases: cell-based, Chinese hamster
# [1] = system: CHO cell line producing mAb3; assay: Glycosylation profile (UPLC-MS of released glycans) of mAb3 from fed-batch
# Protocol: (§1) Glycosylation patterns were analyzed by ultra-performance liquid chromatography coupled to a mass spectrometer (UPLC-MS). The purified antibody was denaturated and the glycans were released from the antibody by digestion with peptide N-glycosidase F (PNGase F) followed by labeling the glycans with the GlycoWorks™ RapiFluor-MS™ N-Glycan Kit according to the manufacturer protocol. For the analysis, an UPLC glycan column (2.1×150 mm) that separated the glycans according to their […] was used. The chromatography was performed at 45° C. using 50 mM ammonium formate (A), pH 4.4 solution and an acetonitrile (B) gradient. In detail, at the beginning the ratio of A:B was 20:80 (0 min) and changed to 27:73 at 3 min and 37:63 at 35 min at a flow rate of 0.5 ml/min. From 36.5 min to 39.5 min only A was used as mobile phase and the flow rate was reduced to 0.2 ml/min. Subsequently, the ratio was changed to 20% A:80% B and the flowrate was increased to 0.5 ml/min at 43.1 min until the end of the process at 55 min. The detection was performed by a fluorescence detector with an excitation wavelength of 265 nm and an emission wavelength of 425 nm. The identification of the glycan structures was performed by MS using positive electro spray ionization (ESI), which was calibrated every 30 s with a standard.
# (§2) Four different clones of Chinese hamster ovary (CHO) cells expressing three different monoclonal antibodies (mAb) and a fusion protein were tested. Cells were cultivated in spin tubes between 14 and 20 days at 37° C., 5% CO2, and 80% humidity. As starting cell density, 3×10^5 cells/mL in 30 mL Cellvento®4CHO media (pH 7.0±0.1) was used for clone 1 and 2 producing mAb1 and mAb2, respectively (Cellvento® Platform). Cells were cultivated at an agitation of 320 rpm and were fed on day 3, 5, 10, 12 and 14 with 3% volume of Cellvento® 4Feed (v/v) and on day 7 with 6% (v/v) of the feed. Clone 3 and 4 producing mAb3 and a fusion protein were inoculated at the same cell density in 30 mL Ex-Cell® Advanced Media (pH 7.2±0.1) while agitation was set to 230 rpm (Ex-Cell® Platform). Clones 3 and 4 were fed with […] Advanced Feed (v/v) on day 3, 5, 7, 10, 12, 14 and 17. […] The pH of all Cellvento® feeds was adjusted to 7.0±0.1 and Ex-Cell® Feeds were adjusted to 8.5±0.1. The glucose level was maintained above 4 g/L by adding a specific amount of a 400 g/L glucose stock solution on demand to up to 6 g/L during the week and up to 13 g/L over the weekend. Glucose and titer were detected in the supernatant with the bioprocess analyzer CEDEX Bio HT (Roche, Mannheim, Germany).
# (§3) To investigate the glycosylation profile during the fed-batch experiment samples were centrifugated and antibodies and Fc-fusion proteins were purified from the cell culture supernatant using protein A PhyTips® (PhyNexus Inc, San Jose, Calif.). Glycosylation patterns were analyzed as described by ultra-performance liquid chromatography coupled to a mass spectrometer (UPLC-MS) using the GlycoWorks™ RapiFluor-MS™ N-Glycan Kit.
# (§4) Glycosylation profile on day 12 was visualized since harvest of recombinant produced proteins on day 12 is common. Quantification of the glycans was obtained using the relative peak area of the fluorescence signal. Almost all peaks were assigned to glycan structures according to their mass. Unknown glycan structures and signals without mass detection were summarized as unknown species (not shown). Four different clones of Chinese hamster ovary (CHO) cells expressing three different monoclonal antibodies (mAb) and a fusion protein were tested. […] The known positive control achieved a […] level on day 12 by increasing the afucosylation to 78%. The same amount of afucosylation compared to the known fucose-analogue acetylated 2F-Fucose was only achieved by clone 3 expressing mAb3 leading to about […] on day 12 (FIG. 8 C). […]
# [2] = system: CHO cell line producing a fusion protein; assay: Glycosylation profile (UPLC-MS of released glycans) of fusion protein from fed-batch; settings: 400 μM additive, day 12
# Protocol: as §1, §2, §3
# Glycosylation profile on day 12 was visualized since harvest of recombinant produced proteins on day 12 is common. Quantification of the glycans was obtained using the relative peak area of the fluorescence signal. Almost all peaks were assigned to glycan structures according to their mass. Unknown glycan structures and signals without mass detection were summarized as unknown species (not shown). Four different clones of Chinese hamster ovary (CHO) cells expressing three different monoclonal antibodies (mAb) and a fusion protein were tested. […] The known positive control achieved a 14% fucosylation level on day 12 by increasing the afucosylation to 78%. The same amount of afucosylation compared to the known fucose-analogue acetylated 2F-Fucose was only achieved by clone 3 expressing mAb3 leading to about 34% afucosylation on day 12 (FIG. 8 C).
# [3] = system: CHO cell line producing mAb1; assay: Glycosylation profile (UPLC-MS of released glycans) of mAb1 from fed-batch; settings: for reduction of the fucosylation compared to the control: mAb1, same concentration of both additives
# Protocol: as §1, §2, §3, §4
# [4] = mAb3, 400 μM additive, day 12, listed as ThioFuc
# [5] = mAb3, 800 μM additive, day 12, listed as ThioFuc
smiles,measurement,setting,value
C[C@@H]1SC(O)[C@@H](O)[C@H](O)[C@@H]1O (stereo partly drawn),% Afucosylated,"[1]; mAb3, 50 μM additive, day 5",17.7%
same,% Fucosylated,"[1]; mAb3, 50 μM additive, day 5",81.4%
same,% fucose analogue (incorporated),"[1]; mAb3, 50 μM additive, day 5",0.38%
same,% Afucosylated,"[1]; mAb3, 50 μM additive, day 12",16.0%
same,% Fucosylated,"[1]; mAb3, 50 μM additive, day 12",72.5%
same,% fucose analogue (incorporated),"[1]; mAb3, 50 μM additive, day 12",~11%
same,% fucose analogue (incorporated),"[1]; mAb3, 50 μM additive, day 12, listed as ThioFuc",10.7%
same,% Afucosylated,"[1]; mAb3, 50 μM additive, day 14",16.1%
same,% Fucosylated,"[1]; mAb3, 50 μM additive, day 14",69.9%
same,% fucose analogue (incorporated),"[1]; mAb3, 50 μM additive, day 14",13.6%
same,% Afucosylated,"[1]; mAb3, 200 μM additive, day 5",22.1%
same,% Fucosylated,"[1]; mAb3, 200 μM additive, day 5",62.9%
same,% fucose analogue (incorporated),"[1]; mAb3, 200 μM additive, day 5",14.5%
same,% Afucosylated,"[1]; mAb3, 200 μM additive, day 12",30.1%
same,% Fucosylated,"[1]; mAb3, 200 μM additive, day 12",33.3%
same,% fucose analogue (incorporated),"[1]; mAb3, 200 μM additive, day 12",~36%
same,% fucose analogue (incorporated),"[1]; mAb3, 200 μM additive, day 12, listed as ThioFuc",35.9%
same,% Afucosylated,"[1]; mAb3, 200 μM additive, day 14",32.1%
same,% Fucosylated,"[1]; mAb3, 200 μM additive, day 14",28.6%
same,% fucose analogue (incorporated),"[1]; mAb3, 200 μM additive, day 14",39.1%
same,% Afucosylated,"[1]; mAb3, 400 μM additive, day 5",28.7%
same,% Fucosylated,"[1]; mAb3, 400 μM additive, day 5",about 48%
same,% fucose analogue (incorporated),"[1]; mAb3, 400 μM additive, day 5",26.5%
same,% Fucosylated,"[1]; mAb3, 400 μM additive, day 5, listed as ThioFuc",46.4%
same,fucosylation level,"[1]; mAb3, 400 μM additive, day 7",about 34%
same,fucosylation level,"[1]; mAb3, 400 μM additive, day 10",~25%
same,% Fucosylated,"[1]; mAb3, 400 μM additive, day 12",21%
same,% Afucosylated,[1]; [4],34.8%
same,% Fucosylated,[1]; [4],20.9%
same,% fucose analogue (incorporated),[1]; [4],44.1%
same,% Afucosylated,"[1]; mAb3, 400 μM additive, day 14",36.0%
same,% Fucosylated,"[1]; mAb3, 400 μM additive, day 14",~18%
same,% fucose analogue (incorporated),"[1]; mAb3, 400 μM additive, day 14",46.2%
same,% Fucosylated,"[1]; mAb3, 400 μM additive, day 14, listed as ThioFuc",17.7%
same,% Afucosylated,"[1]; mAb3, 800 μM additive, day 5",32.3%
same,% Fucosylated,"[1]; mAb3, 800 μM additive, day 5",40.4%
same,% fucose analogue (incorporated),"[1]; mAb3, 800 μM additive, day 5",31.7%
same,% Afucosylated,"[1]; mAb3, 800 μM additive, day 12",about 36%
same,% Fucosylated,"[1]; mAb3, 800 μM additive, day 12",about 15%
same,% fucose analogue (incorporated),"[1]; mAb3, 800 μM additive, day 12",about 48%
same,reduction of fucosylation compared to the control,"[1]; mAb3, 800 μM additive, day 12",about 75%
same,% Afucosylated,[1]; [5],36.4%
same,% Fucosylated,[1]; [5],15.4%
same,% fucose analogue (incorporated),[1]; [5],47.8%
same,% Afucosylated,"[1]; mAb3, 800 μM additive, day 14",38.0%
same,% Fucosylated,"[1]; mAb3, 800 μM additive, day 14",12.5%
same,% fucose analogue (incorporated),"[1]; mAb3, 800 μM additive, day 14",49.3%
same,afucosylation,[2],52%
same,incorporation of fucose analogue (% of the glycans),[2],39%
same,reduction of core-fucosylation compared to the control,[2],about 63%
same,core-fucosylated glycans,"[3]; mAb1, 400 μM additive, day 12",about 26%
same,reduction of the fucosylation compared to the control,[3]; day 7,64%
same,reduction of the fucosylation compared to the control,[3]; day 10,68%
same,reduction of the fucosylation compared to the control,[3]; day 12,67%

# — US20230022796A1 (Merck Patent GmbH, priority 2019, published 2023)
